We go through 57 compounds from ChEMBL document CHEMBL1201862, “PubChem BioAssay data set” (2004).

Molecules are shown by their SMILES.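 All cell lines were grown in 96-well plates and treated with compound for 48 hours. Abbreviation: GI50, concentration required for 50% inhibition of growth.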 The source made the active and inactive calls. No stated cut-off is given here; in the data, active = GI50 up to about 1.1 µM and inactive = higher. Where a SMILES comes first, the peptide text is derived from it. Square brackets hold non-standard residues; d marks the D form. Residues, ends and D or L forms follow the SMILES beside them. Peptide text beside a SMILES is read from it.

Test systems include BT-549; XF498; SNB-78; DLD-1; KM-20L2; DMS-114; HOP-18; LXFL 529.
Common to all, as to assay: inhibition of tumour cell growth, NCI panel, 48 h

In the case of `Cc1occc1C(=S)Nc1ccc(Cl)c(C(=O)OC(C(C)C)C(C)C)c1`, the GI50 in the experiment on BT-549 is 16.6 µM (inactive).
Take `CC1=C(N2CC2)C(=O)C(CO)=C(N2CC2)C1=O`: the GI50 with BT-549 is 0.13 µM (active).
Still for that read-out and setting: the result for `NC1=NC(c2ccc(Cl)cc2)N(c2ccc(S(N)(=O)=O)cc2)C(N)=N1` (configuration not stated) reads > 100 µM (inactive); that for `Cc1cc(Cl)nc(NC(=O)CSc2ccc(Cl)cc2)n1`, > 100 µM (inactive).
`C(CCc1nnc2c(n1)CCCC2)Cc1nnc2c(n1)CCCC2`: the GI50 with BT-549 was > 100 µM (inactive).
On the same count and under the same terms, the result for `COc1ccc(-c2cc(-c3ccccc3)nc(N)n2)c(O)c1` reads 1.7 µM (inactive).
Still for that read-out and setting: under `C(=N\c1cnc2ccccc2c1)/c1ccc2ccccc2n1` stands > 100 µM (inactive).
With `CCS(=O)(=O)Nc1ccc(Nc2c3ccccc3nc3ccccc23)c(OC)c1`, the GI50 in the experiment with XF498 is 0.0223 µM (active); in the experiment on SNB-78 it was 4.89 µM (inactive); in the experiment with DLD-1 it was 2.56 µM (inactive); in the experiment with KM-20L2, 1.43 µM (inactive); in the experiment with DMS-114 it was 0.216 µM (active); in the experiment with HOP-18 it was 0.809 µM (active).
`O=C(CC1(O)C(=O)Nc2c(Cl)cccc21)c1ccccc1` (configuration not stated): the GI50 in the experiment with LXFL 529, with XF498, in the experiment with SNB-78, in the experiment with DLD-1, in the experiment with KM-20L2 and in the experiment with DMS-114 was > 100 µM (inactive) each time. Further, in the experiment with HOP-18, the GI50 was > 100 µM (inactive).
`COC(C)(C)[C@@H](O)[C@H]1C[C@H](C)[C@@]2(CC[C@]3(C)[C@@H]2CC[C@@H]2[C@@]4(C)CC[C@@H](OC(C)=O)C(C)(C)[C@@H]4C[C@@H](OC4OC(COC(C)=O)C(O)C(O)C4O)[C@]23C)O1` (some centres not stated): the GI50 in the experiment with BT-549 was 4.86 µM (inactive).
With `Cc1nnc2n1N=C(c1cc(F)c(Cl)cc1Cl)/C(=C/c1ccc(Cl)cc1)S2`, in the experiment with BT-549, the GI50 is 18.7 µM (inactive).
The same measure, in the same setting: the result for `Cc1ccc2c(c1)SC1=Nc3sc4cc(C)ccc4[n+]3CN12` reads 2.43 µM (inactive); that for `CC(O)(c1ccccc1)c1nccc2ccccc12` (configuration not stated), 56.1 µM (inactive).
Same read-out and setting: the result for `Cc1sc2c(c1C)C(=O)c1cccn1-2` reads 47.2 µM (inactive).
For `COc1cccc(/C=C2\CCC(C)(CN(C)C)C2=O)c1` (configuration not stated), the GI50 with XF498 is > 100 µM (inactive); with SNB-78, > 100 µM (inactive); in the experiment on DLD-1, 62.4 µM (inactive); in the experiment on KM-20L2, 23 µM (inactive); with DMS-114, 69.3 µM (inactive); in the experiment on HOP-18, > 100 µM (inactive).
In the case of `O=c1[nH][nH]c(=O)n1Cc1ccccc1Cn1c(=O)[nH][nH]c1=O`, the GI50 in the experiment on BT-549 is > 100 µM (inactive).
The same measure, in the same setting: the result for `COC1=CC(=O)c2nc3ccccc3c3ccnc1c23` reads 14.6 µM (inactive); that for `C=C1C(=O)C2(C)OC2(C)C1C(=O)O` (configuration not stated), > 100 µM (inactive).
As to `CN(C)c1cccc(OC(=O)NCCCl)c1`, the GI50 in the experiment with XF498, in the experiment on DLD-1, with DMS-114 and in the experiment with HOP-18 was > 100 µM (inactive) throughout.
With `CCCCCCCCCCCCCCCCCCNc1nc(=O)n(C2CC(O)C(COP(=O)(O)OCC3OC(n4ccc(N)nc4=O)C(O)C3O)O2)cc1F` (configuration not stated), in the experiment with BT-549, the GI50 was 31.1 µM (inactive).
Consider `CC(C)(Cl)C(Cl)CC/C(CBr)=C(\Cl)CBr` (configuration not stated), for which the GI50 with BT-549 is 1.75 µM (inactive).
Same read-out and setting: the result for `O=C1CCc2cc3c(cc21)CC1(Cc2cc4c(cc2C1)CCCC4)C3` reads > 100 µM (inactive); that for `CSc1nc(Cl)c2c(n1)Sc1nc3ccccc3n1C2O` (configuration not stated), 4.73 µM (inactive); that for `CCC/C(Cl)=N\OC(=O)Nc1ccc(OC(F)(F)F)cc1`, 20.9 µM (inactive).
The same measure, in the same setting: the result for `O=C(C=P(c1ccccc1)(c1ccccc1)c1ccccc1)c1cccc(-c2cccc([N+](=O)[O-])c2)c1` reads 4.74 µM (inactive); that for `CC1=CC[C@H](C[C@H](C#CCCCC2OCCO2)O[Si](C(C)C)(C(C)C)C(C)C)C(=O)CC1`, > 100 µM (inactive); that for `C(=C\c1nccs1)/c1cccc(/C=C/c2nccs2)n1`, > 50 µM (inactive).
The same measure, in the same setting: the result for `CCOC(=O)c1cc(Sc2ccc(N)c(C(=O)OCC)c2)ccc1N` reads > 100 µM (inactive).
With `O=C(CCN1CCOCC1)C(=Cc1ccccc1)C(=O)CCN1CCOCC1`, the GI50 was 4.29 µM (inactive) in the experiment with XF498; 0.164 µM (active) in the experiment with SNB-78; 1.82 µM (inactive) in the experiment on DLD-1; 9.16 µM (inactive) in the experiment on KM-20L2; 16.8 µM (inactive) in the experiment on HOP-18.
On to `CCc1ccccc1NC(=O)C1=C(C)NC(C)=C(C(=O)Nc2ccccc2CC)C1c1ccccc1Cl`, for which the GI50 with LXFL 529 is > 100 µM (inactive); with XF498, 0.152 µM (active); with SNB-78 it was > 100 µM (inactive); with DLD-1, > 100 µM (inactive); in the experiment on KM-20L2, > 100 µM (inactive); in the experiment with DMS-114, > 100 µM (inactive).
Turning to `O=Cc1cc([N+](=O)[O-])no1`, the GI50 in the experiment on BT-549 was > 100 µM (inactive).
Take `CN(/N=N/c1[nH]cnc1C(N)=O)C1CCCCC1`: the GI50 in the experiment on LXFL 529 is > 100 µM (inactive); with XF498, 75.7 µM (inactive); in the experiment with SNB-78, > 100 µM (inactive); in the experiment on DLD-1, > 100 µM (inactive); in the experiment on KM-20L2, 81.3 µM (inactive); in the experiment on DMS-114 it was > 100 µM (inactive).
Regarding `COC(=O)Cc1c(C2C(CC(=O)OC)c3ccccc3N2C2OC(CO)C(O)C(O)C2O)[nH]c2ccccc12` (configuration not stated), the GI50 with BT-549 was > 100 µM (inactive).
Still for that read-out and setting: the result for `Cc1c(/C=N/NC(=S)Nc2ccccc2)c(=O)n(-c2ccccc2)n1C` reads > 100 µM (inactive).
On to `CC12O[Te]34OC1(C)C(C)(O3)C2(C)O4`, for which the GI50 was 14.6 µM (inactive) in the experiment with LXFL 529; 25.5 µM (inactive) with SNB-78; 15.3 µM (inactive) in the experiment with DLD-1; 32.4 µM (inactive) in the experiment with KM-20L2; 13.6 µM (inactive) with DMS-114; 17.5 µM (inactive) in the experiment on HOP-18.
With `Cc1cc(-c2nc3ccccc3s2)ccc1NC(=O)[C@H](C)N`, in the experiment on BT-549, the GI50 is 15.7 µM (inactive).
The same measure, in the same setting: under `Cc1ccc(S(=O)(=O)N/N=C/C2(c3ccccc3)c3ccccc3-c3ccccc32)cc1` stands 14.2 µM (inactive); under `O=c1[nH]c(=O)n(COCc2ccccc2)cc1Nc1ccc(Br)cc1`, > 100 µM (inactive).
The same measure, in the same setting: the result for `COc1ccc2c3c1OC1C34CCN(C)C(C2)C4=CC(I)C1(OC)OC` (configuration not stated) reads 21.6 µM (inactive).
On the same count and under the same terms, under `CCCc1c(O)nc(Nc2nc3ccccc3[nH]2)[nH]c1=O` stands > 100 µM (inactive).
Consider `C=CCn1c(-c2ccc([N+](=O)[O-])cc2)cs/c1=N\C(P(=O)(O)O)P(=O)(O)O`, for which, in the experiment on BT-549, the GI50 was > 100 µM (inactive).
Still for that read-out and setting: under `[N-]=[N+]=Nc1c([N+](=O)[O-])c(Cl)nc2ccccc12` stands 1.74 µM (inactive).
On to `O=C1C(=O)N(c2ccc(Cl)c(Cl)c2)C(=O)C(=O)C1c1nc2ccccc2s1`, for which the GI50 in the experiment on LXFL 529 was > 100 µM (inactive); in the experiment with SNB-78, > 100 µM (inactive); with DLD-1, > 100 µM (inactive); with KM-20L2, > 100 µM (inactive); with DMS-114 it was > 100 µM (inactive); in the experiment on HOP-18, 21.8 µM (inactive).
On to `Nc1c(C(=O)c2ccccc2)[nH]c(NCc2ccccc2)c1C(=S)Nc1ccccc1`, for which, in the experiment on BT-549, the GI50 is > 100 µM (inactive).
Same read-out and setting: under `CC(=O)NNC(=S)N/C=C1/C(=O)Oc2ccccc2C1=O` stands > 100 µM (inactive); under `CC1(C)OC[C@@H](O)[C@H](C#N)CO1`, > 100 µM (inactive).
`CCOc1ccc(NCC2CC/C(=C\c3ccc(O)cc3)C2=O)cc1` (configuration not stated): the GI50 with BT-549 is 12.9 µM (inactive).
For `O=C(NC/C=C/CO)c1ccccc1`, the GI50 in the experiment on XF498, in the experiment on SNB-78, in the experiment with DLD-1, in the experiment on KM-20L2, in the experiment on DMS-114 and in the experiment with HOP-18 was > 100 µM (inactive) in each case.
Regarding `COc1ccc(C(N)=O)c(OC)c1OCc1ccccc1`, the GI50 with LXFL 529, in the experiment on SNB-78, in the experiment on DLD-1, in the experiment on KM-20L2 and with DMS-114 was > 100 µM (inactive) in each case.
Consider `CC(C)(C)c1ccc(S(=O)(=O)N2C(c3cccc(C4CC[C@@H](C(=O)O)N4S(=O)(=O)c4ccc(C(C)(C)C)cc4)c3)CC[C@H]2C(=O)O)cc1` (some centres not stated), for which the GI50 with BT-549 was 50 µM (inactive).
As for `O=C(O)c1cc2c(ncc3c(=O)n(-c4ccccc4)[nH]c32)s1`, the GI50 with LXFL 529, in the experiment on XF498, in the experiment on DLD-1, in the experiment on KM-20L2, in the experiment on DMS-114 and in the experiment with HOP-18 was > 100 µM (inactive) each time.
Turning to `CC1(C)N=C(N)N=C(N)N1c1cccc(OCc2cccc([N+](=O)[O-])c2)c1`, in the experiment on BT-549, the GI50 was > 53.1 µM (inactive).
Still for that read-out and setting: under `Cc1cc2cc3c(cc2c(-c2ccc(N)cc2)n1)OCO3` stands > 100 µM (inactive); under `CCC(C)C(NC(=O)C(CC(C)C)NC(=O)CNC(=O)C(NC(=O)C1CCCN1C(=O)C(CC(C)C)NC(=O)C(N)Cc1ccccc1)C(C)CC)C(=O)NC(CC(C)C)C(N)=O` (configuration not stated) (H-FLPIGLIL-NH2; configuration not given here), > 75 µM (inactive).
For the compound `CC(C)C[C@H](NC(=O)[C@H](CC(C)C)NC(=O)[C@@H](Cc1c[nH]c2ccccc12)NC(=O)[C@H](Cc1ccccc1)NC(=O)[C@@H](Cc1c[nH]c2ccccc12)NC(=O)[C@H](CCC(N)=O)NC(=O)[C@@H](CCC(N)=O)NC(=O)[C@@H]1CCCN1C(=O)[C@@H](CCCCN)NC(=O)[C@H]1CCCN1C(=O)[C@H](N)CCCN=C(N)N)C(N)=O` (H-[dR][dP][dK]P[dQ]Q[dW]F[dW]LL-NH2), the GI50 in the experiment on XF498, in the experiment on SNB-78, in the experiment with DLD-1, in the experiment on KM-20L2, in the experiment on DMS-114 and in the experiment with HOP-18 was > 100 µM (inactive) throughout.
In the case of `CC1NC(=O)CNC(=O)CNC(=O)C(Cc2ccc(O)cc2)NC(=O)C(C(C)C)NC(=O)C(C)NC1=O` (configuration not stated) (cyclo(GGAAVY); configuration not given here), the GI50 was > 100 µM (inactive) with XF498, > 100 µM (inactive) with DLD-1, > 100 µM (inactive) with DMS-114 and 30.1 µM (inactive) in the experiment on HOP-18.
As for `O=C([O-])Cc1ccccc1.[Na+]` [SODIUM PHENYLACETATE], in the experiment on BT-549, the GI50 was 723 µM (inactive).
